From patent US5922891A, “2-substituted 1,8-dihydroxy-9(10H)-anthracenone pharmaceuticals” (priority 1997, dated 1999) come the findings set out here.

The nature of data set [1]: Deoxyribose degradation as a measure of hydroxyl radical formation. The data set is classed as biochemical. To be noted: 75 μM test compound; controls < 0.1. As to the method:
^c Deoxyribose degradation as a measure of hydroxyl radical formation
Indicated values are μmoles of malondialdehyde per mmole of deoxyribos
released by 75 μM test compound (controls < 0.1).
Degradation of deoxyribose provides a measurement of the amount of hydroxyl radical formation caused by the test compounds. The assay used to determine degradation of 2-deoxy-D-ribose followed generally the procedures of Gutteridge, J. M. C., Biochem. J., 224: 761-767 (1984) and Laughton, et al., Biochem. Pharmacol., 38: 2859-2865 (1989). The following reagents were added to glass tubes in the order and at the final concentrations listed. 0.3 mL kH2 PO4 --KOH buffer, pH 7.4 (30 mM), 0.2 ml double distilled H2 O, 0.2 ml 2-deoxy-D-ribose (2 mM), 0.2 ml FeCl3.6H2 O (0.1 mM), 0.1 ml 2-substituted anthracenone ([…]). Stock solutions of each of the 2-substituted anthracenone compounds were made up fresh before use. Appropriate blanks and controls using an acetronitrile vehicle were performed.
Final reaction volumes were standardized to 1.0 ml. The reaction mixtures were incubated for 2 hours at 37° C. in a shaking water bath at 50 rpm. 1 ml of 2.8% (w/v) trichloracetic acid and 1 ml of 1% (w/v in 0.05 N NaOH) 2-thiobarbituric acid (TBA) were added, and the samples were heated at 100° C. for 15 minutes and then cooled in an ice bath (5 minutes). 2 ml of each reaction mixture was treated with 0.05 ml of 36% (w/v) HCl and 2 of 1-butanol, followed by vigorous shaking with a vortex mixer (Heidolph) for 15 seconds. The organic layer was separated by centrifugation at 3000 rpm (15 minutes) and absorbance at 532 nm was measured against butanol. Calibration was performed using a malondialdehyde (MDA) standard prepared by hydrolysis of 1,1,3,3-tetraethoxypropane (Gutteridge, J. M. C., Anal. Biochem., 69: 518-526 (1975). TBA reactive material was expressed in terms of μmol MDA per μmol deoxyribose. The results of the assay are provided in Table I.

Another data set relates to HaCaT cells. The data set can be described thus: Antiproliferative activity against HaCaT cells (human keratinocyte cell line). The data set is classed as cell-based. The following applies: 48 h, read-out: AA IC50 (antiproliferative activity). As to the method:
HaCaT cells were grown in Dulbecco's modified Eagle's medium (DMEM, No. 041-11954A, Gibco) supplemented with 10% fetal calf serum, penicillin (100 U/mL), and streptomycin (100 μg/mL) in a humidified incubator containing 8% CO2 at 37° C. Cells (2.5·10^4 /1.1 ml per well) were seeded on 24-well multidishes and grown in DMEM. After 24 hours of growth, the medium was replaced with fresh medium and a test compound (0.1-5 μM) was added from freshly made stock solutions, which were prepared in DMSO and diluted with DMEM. The final concentration of DMSO in the culture medium was 0.2%. Controls were performed using DMSO or medium alone. Forty-eight hours after addition of a test compound to the culture, the medium was removed and each well was rinsed with phosphate-buffered saline (PBS, 100 μL). The cells were then incubated with sterile 0.5% trypsin, 0.2% EDTA in PBS for 20 minutes at 37° C. The detached cells from each well were suspended in DMEM and dispersed as single cells by gentle pipetting through an Eppendorf pipette. Cell growth was determined directly by counting the keratinocytes on a Neubauer counting chamber using phase contrast microscopy. Inhibition of cell proliferation was calculated by a comparison of the mean value of the test compound (N=3) with the control (N=6-8) activity: (1-test compound/control)×100.

The target of another data set is T1, 5-LO in bovine PMNL (Bos taurus, UniProt F1MQ78).
T1 construct: The purified PMNLs were suspended at a concentration of; endogenous in cells; host or cells: polymorphonuclear leukocytes isolated from bovine blood
T1 sequence (F1MQ78 1-674): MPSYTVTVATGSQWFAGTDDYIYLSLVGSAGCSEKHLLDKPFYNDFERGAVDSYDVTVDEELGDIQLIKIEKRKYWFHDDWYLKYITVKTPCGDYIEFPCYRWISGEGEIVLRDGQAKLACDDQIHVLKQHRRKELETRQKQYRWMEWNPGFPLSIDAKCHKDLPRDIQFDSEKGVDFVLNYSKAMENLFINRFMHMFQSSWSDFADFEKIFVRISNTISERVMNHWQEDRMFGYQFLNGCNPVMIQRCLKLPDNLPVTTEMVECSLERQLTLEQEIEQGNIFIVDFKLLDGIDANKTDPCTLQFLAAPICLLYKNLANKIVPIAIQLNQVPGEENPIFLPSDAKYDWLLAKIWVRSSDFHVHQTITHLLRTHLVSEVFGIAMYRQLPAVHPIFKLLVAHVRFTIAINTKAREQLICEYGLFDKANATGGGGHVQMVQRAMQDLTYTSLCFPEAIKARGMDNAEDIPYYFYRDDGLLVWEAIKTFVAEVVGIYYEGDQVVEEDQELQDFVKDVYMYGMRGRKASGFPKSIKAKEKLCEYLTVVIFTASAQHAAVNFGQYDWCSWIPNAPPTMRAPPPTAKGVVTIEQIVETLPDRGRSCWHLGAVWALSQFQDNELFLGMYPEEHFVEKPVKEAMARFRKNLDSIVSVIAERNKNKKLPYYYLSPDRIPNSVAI
The data set can be described thus: Inhibition of 5-lipoxygenase (5-HETE and LTB4 biosynthesis) in Ca-ionophore-stimulated bovine PMNL. Format: cell-based. The following applies: N = 3 or more. As to the method: Briefly, PMNLs were prepared from sodium EDTA-anticoagulated bovine blood, essentially as described by Walstra, P. et al., (Biochem. Biophys. Acta, 795:499-503 (1984)). Contaminating platelets were removed by repeated centrifugations at 100 g for 20 minutes. […] Cell counts were conducted with a Sysmex micro cell counter CC-130. Preincubation was performed with 2.4 ml of the suspension and 10 μl of a DMSO stock solution of test compounds at the desired concentrations in phosphate buffered saline (PBS) or vehicle control (DMSO at final concentration of 0.4%) for 15 minutes at 37° C. in a shaking water bath at 50 rpm. […] The incubation mixture was held on ice bath for 20 minutes and then centrifuged at 4000 g for 5 minutes at 0° C. The supernatant was diluted with 5 ml of water and passed through a prewashed (10 ml of methanol and 5 ml of water, sequentially) octadecylsilane reversed phase cartridge (Baker). The eicosanoids were eluted with 3 ml of methanol, diluted with 3 ml of water and subjected to reversed phase HPLC analysis using a 250×4 mm column packed with Nucleosil C18 (7 μm particles; Bischoff, Leonberg, Germany). The isocratic elution conditions of LTB4 were tetrahydrofuran (THF)/methanol/water/acetic acid (25+30+45+0.1), adjusted to pH 5.5 with concentrated NH3, at a flow rate of 0.9 ml/min (Kontron 420 pump), monitored at 280 nm with a Kontron 735 LC UV detector. 5-HETE was monitored at 232 nm using methanol/water/acetic acid (77+23+0.1), pH 5.5 and a flow rate 1.0 ml/min. Data were recorded on a MacLab data acquisition system (WissTech, Germany) and analysis was performed using the application Peaks on an Apple Macintosh Quadra 700 computer. Integrated areas of the peaks were compared to a PGB2 internal standard and to external standards of authentic samples. Molar absorption coefficients of Samuelsson et al., Borgeat, P. and B. Samuelsson, (Proc. Natl. Acad. Sci. USA, 76:2148-2152 (1979)), were used for making calculations. Inhibition was calculated by a comparison of the mean value of test compound (n=3) with control (n=6-8) activity: (1-test compound/control)×100.
See Walstra, P. et al., Biochem Biophys. Acta, 795:499-503 (1984); and Dannhardt et al. J. Pharm. Pharmacol., 44:419-424 (1992). […] (Schroder, J. M., J. Invest. Dermatol., 87:624-629 (1986); Tanzer, et al., Arch. Pharm. (Weinheim), 324:841-846 (1991)).

Usually IC50 stands for the concentration that inhibits the measured activity by half. As for `O=C(O)Cc1ccc2c(c1O)C(=O)c1c(O)cccc1C2` [IA, 9,10-Dihydro-1,8-dihydroxy-9-oxo-2-anthracenacetic acid, reference compound], the “DD (deoxyribose degradation, malondialdehyde released)” value (shortened to “DD”) in data set [1] is recorded as 3.74 ± 0.23 μmol of MDA/mmol. For the same molecule, the IC50 in the data set with HaCaT cells was greater than 5000 nM.

The molecule `COC(=O)Cc1ccc2c(c1O)C(=O)c1c(O)cccc1C2` [IB, Methyl 9,10-Dihydro-1,8-dihydroxy-9-oxo-2-anthracenacetate] returned an IC50 on 5-LO in bovine PMNL greater than 30000 nM.

In the case of `O=C(Cc1ccc2c(c1O)C(=O)c1c(O)cccc1C2)NO` [IC, N-Hydroxy-(9,10-dihydro-1,8-dihydroxy-9-oxo-2-anthracene)acetamide], the “DD” value in data set [1] is on record as 1.89 ± 0.14 μmol of MDA/mmol.

As for `O=C(O)CCc1ccc2c(c1O)C(=O)c1c(O)cccc1C2` [IIA, 3-(9,10-Dihydro-1,8-dihydroxy-9-oxo-2-anthracene) propionic acid, reference compound], the “DD” value in data set [1] was 2.67 ± 0.23 μmol of MDA/mmol. For the same molecule, the IC50 with HaCaT cells was greater than 5000 nM.

Molecule `COC(=O)CCc1ccc2c(c1O)C(=O)c1c(O)cccc1C2` [IIB, Methyl 3-(9,10-Dihydro-1,8-dihydroxy-9-oxo-2-anthracene) propionate] came in with a half-maximal inhibitory concentration (IC50) against 5-LO in bovine PMNL greater than 30000 nM.

Consider `O=C(CCc1ccc2c(c1O)C(=O)c1c(O)cccc1C2)NO` [IIC, N-Hydroxy-3-(9,10-dihydro-1,8-dihydroxy-9-oxo-2-anthracene)propionamide], for which the “DD” value in data set [1] is recorded as 1.67 ± 0.31 μmol of MDA/mmol. Moreover, the IC50 with HaCaT cells was determined as 1300 nM.

For the molecule `O=C(O)CCCc1ccc2c(c1O)C(=O)c1c(O)cccc1C2` [IIIA, 4-(9,10-Dihydro-1,8-dihydroxy-9-oxo-2-anthracene) butanoic acid, reference compound], the “DD” value in data set [1] was 2.61 ± 0.38 μmol of MDA/mmol. The half-maximal inhibitory concentration (IC50) with HaCaT cells is greater than 5000 nM.

In the case of `O=C(CCCc1ccc2c(c1O)C(=O)c1c(O)cccc1C2)NO` [IIIC, N-Hydroxy-4-(9,10-dihydro-1,8-dihydroxy-9-oxo-2-anthracene)butanamide], the “DD” value in data set [1] is 1.46 ± 0.02 μmol of MDA/mmol. The IC50 with HaCaT cells turned out to be 1500 nM.

As for `O=C1c2c(O)cccc2Cc2ccc(C(Cc3ccccc3)C(=O)O)c(O)c21` (stereo not drawn) [IXA, 2-(9,10-Dihydro-1,8-dihydroxy-9-oxo-2-anthracene)-3-phenylpropionic acid], the “DD” value in data set [1] was 3.25 ± 0.45 μmol of MDA/mmol. In addition, in the data set with HaCaT cells, the IC50 was greater than 5000 nM.

Consider `O=C1c2c(O)cccc2Cc2ccc(C(Cc3ccccc3)C(=O)NO)c(O)c21` (stereo not drawn) [IXC, N-Hydroxy-2-(9,10-dihydro-1,8-dihydroxy-9-oxo-2-anthracene)-3-phenylpropionamide], for which the IC50 with HaCaT cells came out at 1500 nM.

Consider `CN(O)C(=O)C(Cc1ccccc1)c1ccc2c(c1O)C(=O)c1c(O)cccc1C2` (stereo not drawn) [IXD, N-Hydroxy-N-methyl-2-(9,10-dihydro-1,8-dihydroxy-9-oxo-2-anthracene)-3-phenylpropionamide], for which the “DD” value in data set [1] is recorded as 1.68 ± 0.13 μmol of MDA/mmol. For the same molecule, the IC50 with HaCaT cells is 900 nM.

On to `CC(C(=O)O)c1ccc2c(c1O)C(=O)c1c(O)cccc1C2` (stereo not drawn) [VIIA, 2-(9,10-Dihydro-1,8-dihydroxy-9-oxo-2-anthracene) propionic acid], for which the concentration for half-maximal inhibition (IC50) with HaCaT cells was greater than 5000 nM.

The molecule `COC(=O)C(C)c1ccc2c(c1O)C(=O)c1c(O)cccc1C2` (stereo not drawn) [VIIB, Methyl 2-(9,10-Dihydro-1,8-dihydroxy-9-oxo-2-anthracene) propionate] yielded a half-maximal inhibitory concentration (IC50) at 5-LO in bovine PMNL greater than 30000 nM.

For the molecule `CC(C)C(C(=O)NO)c1ccc2c(c1O)C(=O)c1c(O)cccc1C2` (stereo not drawn) [VIIIC, N-Hydroxy-2-(9,10-dihydro-1,8-dihydroxy-9-oxo-2-anthracene)-3-methylbutanamide], the “DD” value in data set [1] is listed as 1.66 ± 0.08 μmol of MDA/mmol. Moreover, in the data set with HaCaT cells, the IC50 amounted to 1500 nM.

For `O=C(O)c1ccc(Cc2ccc3c(c2O)C(=O)c2c(O)cccc2C3)cc1` [XIA, 4-[(9,10-Dihydro-1,8-dihydroxy-9-oxo-2-anthracene)methyl]benzoic acid, reference compound], the IC50 against 5-LO in bovine PMNL was found to be 2000 nM.

`O=C(NO)c1ccc(Cc2ccc3c(c2O)C(=O)c2c(O)cccc2C3)cc1` [XIC, N-Hydroxy-4-[(9,10-dihydro-1,8-dihydroxy-9-oxo-2-anthracene)methyl]benzamide]: the IC50 with HaCaT cells came out at 1400 nM.

Turning to `CN(O)C(=O)c1ccc(Cc2ccc3c(c2O)C(=O)c2c(O)cccc2C3)cc1` [XID, N-Hydroxy-N-methyl-4-[(9,10-dihydro-1,8-dihydroxy-9-oxo-2-anthracene)methyl]benzamide], in data set [1], the “DD” value is 0.97 ± 0.03 μmol of MDA/mmol.

Regarding `O=C(O)c1ccc(C(=O)c2ccc3c(c2O)C(=O)c2c(O)cccc2C3)cc1` [XIIA, 4-[(9,10-Dihydro-1,8-dihydroxy-9-oxo-2-anthracene)oxomethyl]benzoic acid], the “DD” value in data set [1] is given as 1.80 ± 0.14 μmol of MDA/mmol. The IC50 in the data set with HaCaT cells was greater than 5000 nM.
